According to patent publication US20230374068A1, “COMPOSITIONS AND METHODS FOR TREATING A DISEASE” (RAMOT AT TEL AVIV UNIVERSITY LTD., priority 2021, published 2023):
Entries after “also recorded” stand apart in the source; their conditions may differ.

How the values were obtained:
Rab12 phosphorylation [1] = test: Rab12 phosphorylation in Ion/TPA-activated BMMCs with inhibitors (western blot); type: cell-based, mouse; details: 1 μM inhibitor, 30 min pre-incubation, then Ion/TPA 30 min
Description: BMMCs were seeded in 10 cm plates overnight in growth medium or medium containing 400 nM TPA. Next day cells were collected and washed three times with Tyrode's buffer in Eppendorf tubes. Cells were subsequently incubated for 30 minutes at 37° C. with vehicle (0.1% DMSO) or with 10 μM GSK2578215A (GSK), 1 μM Go6976, 2 mM EGTA or 1 μM MRT68921, as indicated. Cells were then left untreated (UT) or treated for additional 30 minutes at 37° C., with a combination of 1 μM 4-bromo-calcium ionophore A23187 (Ion) and 50 nM of the phorbol ester (TPA), in the absence or presence of the inhibitors. Cells were then washed three times with PBS, lysed with lysis buffer containing phosphatase inhibitors and cell lysates analysed by western blotting with anti phosphoRab12 antibodies followed by reprobing with anti Rab12 antibodies. A representative blot is shown.
The results are the relative ratio of phosphorylated to total Rab12. […]
Samples were separated by SDS-PAGE using 10-12% polyacrylamide gels and electrophoretically transferred to nitrocellulose membranes. […] The intensity of the immunoreactive bands was quantified using ImageJ software.
Cells (RBL, BMMCs or SH-SY5Y) were grown overnight in growth medium or medium containing 400 nM TPA, where indicated. […] Cells were then washed with PBS and lysed for 30 minutes in lysis buffer D. Cell lysates were analyzed by western blotting. […]

[2] = biological target: T1, Rab12 interaction with RILP (Mus musculus, UniProt Q5ND29); test: Peptide inhibition of Rab12 pulldown by GST-RILP from RBL cell lysates; type: binding, rat; details: 100 μM peptide, 4 h at 4° C., then RBL cell lysate overnight
T1 construct: made in house
T1 sequence (Q5ND29 1-369): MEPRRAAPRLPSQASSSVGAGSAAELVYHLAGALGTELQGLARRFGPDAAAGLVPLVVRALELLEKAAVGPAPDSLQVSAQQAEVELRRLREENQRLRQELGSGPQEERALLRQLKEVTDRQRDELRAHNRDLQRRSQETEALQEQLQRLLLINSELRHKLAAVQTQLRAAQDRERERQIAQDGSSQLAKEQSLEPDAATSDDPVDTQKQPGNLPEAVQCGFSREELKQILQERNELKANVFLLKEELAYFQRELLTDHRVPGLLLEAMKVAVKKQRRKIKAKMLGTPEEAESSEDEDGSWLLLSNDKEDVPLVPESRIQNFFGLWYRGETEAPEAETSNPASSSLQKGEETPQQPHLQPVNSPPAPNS
Description: At the end of the incubation period, beads were sedimented by centrifugation at 5000×g for 5 min at 4° C., washed four times with 50 mM Hepes pH 7.4, 150 mM NaCl, 1 mM MgCl2, 0.2% Triton X-100, protease inhibitor mixture, 1 mM PMSF, 2 mM Na3VO4, 10 mM NaPPi and 80 mM β-glycerophosphate and suspended in 1× sample buffer and boiled for 7 minutes. Proteins were resolved by SDS-PAGE and analyzed by immunoblotting with anti Rab12 antibodies. […] The results are the average pulldown±SEM derived from two independent experiments.
Pulldown assays were performed as previously described 2. Briefly, 20 μg of GST fusion proteins or control GST immobilized on Glutathione Agarose beads were incubated for 18 hours at 4° C. with RBL cell lysates (500 μg) prepared in buffer C (50 mM Hepes pH 7.4, 150 mM NaCl, 1 mM MgCl2, 1% TritonX100, 1 mM PMSF, protease inhibitor mixture, 2 mM Na3VO4) in the presence of 0.5 mM GTPγS. At the end of the incubation period, beads were sedimented by centrifugation at 5000×g for 5 minutes at 4° C., washed 4 times in buffer C with 0.2% TritonX100, and finally suspended in sample buffer, boiled for 7 minutes, and subjected to SDS-PAGE and immunoblotting. […]

Rab12 phosphorylation [3] = test: Rab12 phosphorylation in PC12 cells, Ion/TPA- or rotenone-treated (western blot); type: cell-based
Description: Cells that were incubated in the absence of rotenone were then left untreated or incubated with a combination of 1 μM 4-bromo-calcium ionophore A23187 (Ion) and 50 nM of the phorbol ester (TPA) for 30 minutes at 37° C. Cells were then washed three times with PBS, lysed with lysis buffer containing phosphatase inhibitors and cell lysates analysed by western blotting with anti phosphoRab12 antibodies followed by re-probing with anti GAPDH antibodies. […] The results are the fold increase in Rab12 phosphorylation based on the ratio of phosphorylated Rab12 to GAPDH.
Samples were separated by SDS-PAGE using 10-12% polyacrylamide gels and electrophoretically transferred to nitrocellulose membranes. Blots were blocked for 20 min in TBST (10 mM Tris-HCl, pH 8.0, 150 mM NaCl, and 0.05% Tween 20) containing 5% skim-milk, followed by overnight incubation at 4° C. with the desired primary Abs. Blots were washed three times and incubated for 1 hour at room temperature with HRP-conjugated secondary Ab. Immunoreactive bands were visualized by the ECL method according to standard procedures. The intensity of the immunoreactive bands was quantified using ImageJ software.
For Rab12 phosphorylation in PC12 cells, cells were grown for 48 hours either in growth medium or in medium supplemented with 1 μM LY333531 or 10 μM GSK2578215A in the absence or presence of 100 nM rotenone. For Ion/TPA-stimulated phosphorylation, cells grown in medium only or medium containing inhibitors, were stimulated with 1 μM 4-bromo-calcium ionophore A23187 (Ion) and 50 nM of the phorbol ester (TPA) for 30 minutes. Cells were processed as above.

PC12 cells = test: SG distribution, cell morphology and primary cilia in PC12 cells expressing CA Rab12 (confocal microscopy); type: cell-based
Description: Cells (4×10^4 cells/well) were seeded onto 12 mm round glass coverslips in a 24-well plate. Next day, cells were transiently co-transfected using lipofectamine 2000 with 500 ng of plasmid encoding NPY-mRFP and 1000 ng of pEGFP-C1-Rab12(Q100L), a GTP-locked, constitutively active mutant of Rab12 (herein: CA Rab12). After transfection, cells were either left untreated (UT) or incubated for 48 hours at 37° C. with 100 nM rotenone. After 48 hours, cells were incubated for an additional hour at 37° C. with or without 100 μM of TAT-125 peptide (i.e. […], SEQ ID NO: 14), as indicated. Cells were then fixed and immunostained with polyclonal antibodies directed against Arl13b (primary cilium marker), followed by Hilyte Plus 647-conjugated goat anti-rabbit IgG. Cells were visualized by confocal microscopy. The right panels are the overlap of the confocal images on the corresponding brightfield.
RBL cells (4×10^5 cells/well) or PC12 cells (4×10^4 cells/well) were grown on 12-mm round glass coverslips, washed three times with PBS, and fixed for 20 min at room temperature with 4% paraformaldehyde in PBS. […] After washing, the cells were mounted (Golden Bridge Life Science, Mukilteo City, WA) and analyzed using a LEICA SP8 STED high resolution laser scanning confocal microscope (Leica, Wetzlar, Germany) using a 63 oil/1.4 numerical aperture objective. […]

[4] = biological target: T2, endogenous Rab12 of RBL cells (rat, UniProt P35284 49-291, limits assumed); test: GST pulldown of endogenous Rab12 from resting RBL cell lysates, anti-Rab12 immunoblot
T2 construct: Total Rab12 pulled down from cell lysates (blot reprobed with anti-Rab12)
T2 sequence (looked up): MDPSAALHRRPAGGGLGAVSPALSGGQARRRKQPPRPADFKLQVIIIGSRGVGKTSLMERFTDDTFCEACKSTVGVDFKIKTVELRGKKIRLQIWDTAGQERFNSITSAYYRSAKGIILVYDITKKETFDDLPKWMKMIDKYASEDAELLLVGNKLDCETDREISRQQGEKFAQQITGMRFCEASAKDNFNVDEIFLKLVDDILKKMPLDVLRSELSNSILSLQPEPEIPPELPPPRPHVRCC
Description: Cells were then lysed and 500 μg of cell lysate were incubated overnight at 4° C. with either GST, GST-RILP, GST-RILP-L1 or GST-RILP-L2, immobilized on glutathione agarose beads, as indicated. At the end of the incubation period, beads were sedimented by centrifugation at 5000×g for 5 minutes at 4° C., washed four times with buffer containing 50 mM Hepes pH 7.4, 150 mM NaCl, 1 mM MgCl₂, 0.2% Triton X-100, protease inhibitor mixture, 1 mM PMSF, 2 mM Na₃VO₄, 10 mM NaPPi and 80 mM β-glycerophosphate and suspended in 1× sample buffer and boiled for 7 minutes. Proteins were resolved by SDS-PAGE and analyzed by immunoblotting with the anti-phosphoRab12 antibodies, followed by reprobing with anti Rab12 antibodies, as indicated. Representative blots are shown. Similar results were obtained in two separate experiments.
Next, it was assessed whether […] any impact on Rab12 interactions with its RILP family effectors. To this end, lysates derived from resting RBL cells or RBL cells that were triggered with either IgE/Ag or Ion/TPA, were subjected to pulldown assays by chimeric proteins consisting of GST-fused to either RILP, RILP-L1, or RILP-L2, or control GST. […] Therefore, under these conditions, the efficacy of Rab12-effector interactions was RILP-L1>RILP>>>RILP-L2.

With `CN1CCc2cc(Nc3ncc(C4CC4)c(NCCCNC(=O)C4CCC4)n3)ccc2C1` [MRT68921] as the molecule, how does the “Ion/TPA-stimulated phosphorylation of Rab12” value (Rab12 phosphorylation [1]) read?
The value was “significantly inhibited”.

For `Cn1c2ccccc2c2c3c(c4c5ccccc5n(CCC#N)c4c21)CNC3=O` [Go6976], which “Ion/TPA-stimulated phosphorylation of Rab12” value (Rab12 phosphorylation [1]) is on record?
Its value is “significantly inhibited”.

How did the “pulldown of Rab12 by GST-RILP” value [2] turn out when “EACKSTVGVDFKIKT [peptide Rab125, human Rab12 residues 69-83]” was run?
Its value is “could inhibit”.

`C=C(C)[C@H]1Cc2c(ccc3c2O[C@@H]2COc4cc(OC)c(OC)cc4[C@@H]2C3=O)O1` [rotenone] was tested. Which “induction of Rab12 phosphorylation” value (Rab12 phosphorylation [3]; Ion/TPA 30 min or 100 nM rotenone 48 h) did it give?
The value was “induced”.

How did the “cellular distribution of the SGs (Rab12-RILP interaction in intact cells)” value (PC12 cells; PC12 cells expressing CA Rab12 and NPY-mRFP, 100 μM TAT-125) turn out when “YGRKKRRQRRRGGEACKSTVGVDFKIKT [TAT-125, cell permeable version of peptide 125]” was run?
Its value is “partial scattering of the clustered SGs”.

What about the “cell morphology and primary cilia of rotenone treated cells” value (PC12 cells; PC12 cells, 100 nM rotenone 48 h, then 100 μM TAT-125) of the same molecule?
The value was “improves the cell morphology; also recorded: regained their normal appearance and size”.

How did the “pulldown of Rab12 by GST-RILP” value [2] turn out when “ERFNSITSAYYRSAK [peptide Rab121, human Rab12 residues 102-116]” was run?
Its value is “could inhibit”.

Which “rotenone-induced phosphorylation of Rab12” value (Rab12 phosphorylation [3]; 100 nM rotenone 48 h with 1 μM LY333531 or 10 μM GSK2578215A) does the source give for `O=C(Nc1cccnc1)c1cc(-c2ccnc(F)c2)ccc1OCc1ccccc1` [GSK2578215A] here?
Its value is “significantly inhibited”.

And the “Ion/TPA-induced phosphorylation of Rab12” value (Rab12 phosphorylation [3]; 1 μM LY333531 or 10 μM GSK2578215A 48 h, Ion/TPA 30 min)?
Its value is “resistant”.

B1: GST-RILP-L1 (pGEX-4T-3-RILP-L1) (other, mouse, UniProt Q9JJC6 1-406, looked up)
chain: MEEPLGSPPAALSALEKNVAELTVMDVYDIASLVGHEFERVIDQHGCESIARLMPKVVRVLEILEVLVSRHHVAPELDELRLELDRLRVERMDRIEKERKHQKELELVEDVWRGEAQDLLSQIAQLQEENKQLMTNLNHKDVGFSEEEFQKQEGMSERERQVMKRLKEVVDKQRDELRAKDRELGLKNEDVEALQQQQTRLMKINHDLRHRVTVVEAQGKALIEQKVELEADLQTKEQEMGSLRAELGKLRERLQGEHSQNGEEEEAEIQPQPDGEESISDAEKAALDLKDPNRPRFTLQELRDVLHERNELKSKVFLLQEELAYYKSEEIEEENRIPQPPPITHPRTSPQPESGIKRLFSFFSRDKKRLANTQRPTHIHESFGQWAITQRDDGYTEQGQEALQHL
notes: Immobilized on glutathione agarose beads; not shown: glutathione S-transferase (GST) encoded by the pGEX-4T-3 vector
For B1, which “fold pulldown efficacy against GST-RILP” value [4] is on record?
Its value is 3 fold.

What about the “fold pulldown efficacy against GST-RILP-L2” value [4] of the same molecule?
The value was 9 fold.
